# Reference: patent publication US8815954B2, “Arginine heteromers for topical administration” (Revance Therapeutics, Inc., priority 2005, dated 2014)
# Legend:
# murine skin = assay: In vivo cumulative efficacy for topical delivery of arginine across murine skin; morphological assessment of treated skin sections by image analysis; parameters: species or system C57 black 6 female mice; conditions: mice, topical 200 μl once daily for 7 days in Cetaphil cream, dorsal skin harvested 24 hours after last treatment, H&E image analysis
# Procedure: In vivo cumulative efficacy for topical delivery of arginine across murine skin.
# The potential for a heteromer of arginine to cross the skin and exert previously characterized benefits related to arginine/NOS activity was evaluated by examining arginine-vitamin E and arginine-palmitate heteromers in an animal model system. While both heteromers improve the lipid solubility relative to arginine alone and should increase transdermal flux, the vitamin E heteromer is also expected to afford additional functional benefits due to its anti-oxidant properties.
# 1. Arg-palmitate: 0.9996 g of arginine+palmitate were dissolved in 6 ml of jojoba oil (Essential Wholesale, Portland, Oreg.), then diluted with 6 ml (1:1 dilution) of Cetaphil cream.
# 2. Arg-vitamin E: 0.419 g of arginine+vitamin E were dissolved in 6 ml of deionized H2O then diluted with 6 ml (1:1 dilution) of Cetaphil cream.
# Daily-dose topical treatments of metered 200 μl aliquots were prepared for treatments of Arg-palmitate, Arg-vitamin E, or Cetaphil control in 650 μl microcentrifuge tubes.
# Animals (C57 black 6 female mice, Charles River Laboratories, Wilmington, Mass.) were anesthetized via inhalation of isoflurane mixed with oxygen and then injected with 0.5 ml rodent anesthetic cocktail (3.75 ml of 100 mg/ml Ketamine, 3.00 ml of 20 mg/ml Xylazine, and 23.25 ml of saline) intraperitoneally. The animals were supplemented with isoflurane as necessary. Treatment groups contained 4 mice each and the control group 3 mice. After being anesthetized, a 2.0 cm×2.0 cm dose site on the dorsum of each mouse was carefully shaved with a hair clipper on the first day of treatment application and animals underwent depilatory treatment in the same dorsal region using a rosin mixture (Surgiwax, Ardell International, Los Angeles, Calif.). Animals were anesthetized via inhalation of isoflurance only during the application of treatments in Cetaphil moisturizing cream (Galderma, Fort Worth, Tex.) and had metered 200 μl doses of the appropriate treatment applied to the cranial portion of dorsal back skin (selected because the mouse cannot reach this region with mouth or limbs). Animals remained under anesthesia for 1-2 minutes while the appropriate treatment was applied into the skin with small metal spatula. […]
# High resolution digital images of each section were obtained using a Retiga 1300B camera (QImaging, Burnaby, BC, Canada). Images were analyzed using Image-Pro Plus analysis software (Media Cybernetics, Silver Springs, Md.) to determine morphological assessment and expressed as positive pixels. Mean and standard error were subsequently determined for each group using Statview software (Abacus, Berkeley, Calif.), with analysis of significance at 95% confidence in Wilcoxon signed ranks.
# [1] = test system: human forehead skin perfusion; assay: Human forehead tissue perfusion by Laser Doppler Flowmeter after topical application; format: in vivo; conditions: lip balm formulation 4.0 mg/ml topical, readings every 30 seconds for 5 minutes from one minute after application (n=55)
# Procedure: Mean and standard error were assessed using Statview (Abacus Concepts, Berkeley, Calif.), with comparisons made using ANOVA repeated measures and significance determined at 95% with post-hoc testing using Fisher PLSD or Scheffe F-test. All procedures and analyses were performed by blinded observers.
compound,measurement,setting,value
Cc1c(C)c2c(c(C)c1OC(=O)C(N)CCCNC(=N)N)CCC(C)(CCCC(C)CCCC(C)CCCC(C)C)O2 (centres unmarked) [Arg-Vitamin E],"Dermis: dermal thickness, Mean",murine skin,35779 positive pixels
same,"Epidermis: epidermal thickness, Mean",murine skin,16475 positive pixels
same,"Fat: fat thickness/density, Mean",murine skin,21386 positive pixels
same,"Hair: hair length, Mean",murine skin,18316 positive pixels
same,"Forehead perfusion, Mean",[1],8.016 tissue perfusion units
